The source of these data is PubChem BioAssay (NCI).

Some test systems named below: UACC-257 melanoma; UO-31 renal; OVCAR-3 ovarian; SF-268 CNS; PC-3 prostate; NCI/ADR-RES ovarian; KM12 colon; SNB-75 CNS; A549 NSCLC; ACHN renal; MOLT-4 leukemia; EKVX NSCLC; OVCAR-5 ovarian; LOX IMVI melanoma; K-562 leukemia; RPMI-8226 leukemia; U251 CNS; A498 renal.
What all share (assay): growth of human tumour cells (NCI), 48 h

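Briefly, cells in 96-well plates were exposed to five compound concentrations for 48 h, and endpoints were estimated by linear interpolation. TGI denotes the concentration required for complete inhibition of growth.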 Bounds are passed on as bounds.

For `COC(=O)c1cc(/C=C/C(=O)Cc2ccccc2)cn1S(=O)(=O)c1ccccc1`, the TGI in the test on UACC-257 melanoma, in the test with UO-31 renal, in the test with OVCAR-3 ovarian, with SF-268 CNS, with PC-3 prostate and in the test with NCI/ADR-RES ovarian was over 100 µM throughout. Moreover, the TGI in the test on KM12 colon, with SNB-75 CNS, in the test on A549 NSCLC, with ACHN renal, with MOLT-4 leukemia and in the test with EKVX NSCLC was over 100 µM throughout. In addition, the TGI with OVCAR-5 ovarian, in the test with LOX IMVI melanoma and with K-562 leukemia was over 100 µM in each case.

Consider `CC(=O)OC(COc1ccc2c(c1)[n+]([O-])nc(N)[n+]2[O-])CN1CCCCC1` (stereo not given), for which the TGI with UACC-257 melanoma is 29.1 µM; with UO-31 renal it was over 100 µM; in the test with OVCAR-3 ovarian, 38 µM; in the test on RPMI-8226 leukemia, 25.8 µM; with NCI/ADR-RES ovarian, over 100 µM; in the test on KM12 colon, 50.4 µM. The TGI in the test on SNB-75 CNS came to 46.7 µM; in the test on A549 NSCLC, 40.7 µM; with U251 CNS, 43 µM; in the test with A498 renal it was 16.5 µM; in the test with ACHN renal it was 39.3 µM; in the test on MOLT-4 leukemia it was 14.8 µM. Moreover, the TGI in the test on OVCAR-5 ovarian came out at 61.2 µM; with K-562 leukemia it was 38.5 µM.

For `COc1ccccc1/C=C1\CCC(Cc2ccccc2)(CN(C)C)C1=O` (stereo not given), the TGI was over 100 µM in the test on UACC-257 melanoma; over 100 µM in the test with UO-31 renal; 15.3 µM in the test with OVCAR-3 ovarian; over 100 µM in the test with SF-268 CNS; 39.1 µM with RPMI-8226 leukemia; over 100 µM in the test with NCI/ADR-RES ovarian. The TGI is 15.9 µM in the test on KM12 colon; over 88.9 µM with SNB-75 CNS; over 100 µM in the test with A549 NSCLC; 45.5 µM in the test with U251 CNS; 27.6 µM with A498 renal; over 100 µM with ACHN renal. Moreover, the TGI in the test on MOLT-4 leukemia is 38.9 µM; in the test with EKVX NSCLC it was 34.7 µM; in the test on OVCAR-5 ovarian it was over 81.9 µM; with LOX IMVI melanoma it was 29.4 µM; with K-562 leukemia, over 34.5 µM.

As for `C1=NN2C(c3ccccc3)=NOC2C2C(c3ccccc3)=NOC12` (stereo not given), the TGI with UACC-257 melanoma, in the test on UO-31 renal, in the test with OVCAR-3 ovarian, with SF-268 CNS, in the test on PC-3 prostate and in the test with NCI/ADR-RES ovarian was over 100 µM each time. Further, the TGI with KM12 colon, with SNB-75 CNS, in the test on A549 NSCLC, in the test with ACHN renal, with EKVX NSCLC and in the test on OVCAR-5 ovarian was over 100 µM in each case. In the test with LOX IMVI melanoma, the TGI was over 100 µM.

Take `CN1CCS(=O)(=O)NC(Cc2ccccc2)C(=O)N2CCCC2C1=O` (stereo not given): the TGI in the test on UACC-257 melanoma, in the test with UO-31 renal, in the test with OVCAR-3 ovarian, in the test on SF-268 CNS, in the test on RPMI-8226 leukemia and in the test on KM12 colon was over 100 µM each time. In addition, the TGI in the test with SNB-75 CNS, in the test with A549 NSCLC, with U251 CNS, in the test on A498 renal, with ACHN renal and with MOLT-4 leukemia was over 100 µM in each case. The TGI with EKVX NSCLC, in the test on OVCAR-5 ovarian, with LOX IMVI melanoma and in the test with K-562 leukemia was over 100 µM throughout.

In the case of `COc1ccc(OC(=O)N2C/C(=C\c3ccccc3)C(=O)/C(=C/c3ccccc3)C2)cc1`, the TGI in the test with UACC-257 melanoma worked out at 7.71 µM; in the test with UO-31 renal, 23.6 µM; in the test on OVCAR-3 ovarian, 13.1 µM; in the test with SF-268 CNS, 15.2 µM; with RPMI-8226 leukemia, 0.172 µM; in the test on PC-3 prostate, 11.2 µM. Besides, the TGI worked out at 4.18 µM with KM12 colon; 32.6 µM in the test with SNB-75 CNS; 38.9 µM with A549 NSCLC; 8.87 µM in the test with U251 CNS; 10.6 µM in the test with A498 renal; 14.4 µM with ACHN renal. Further, the TGI in the test on MOLT-4 leukemia was determined as 8.06 µM; in the test on EKVX NSCLC, 58.3 µM; in the test on OVCAR-5 ovarian, 27.1 µM; with LOX IMVI melanoma, 3.22 µM; in the test on K-562 leukemia, 7.66 µM.

For the compound `N#Cc1c(-c2ccccc2)cn(C(=O)c2ccccc2)c1N`, the TGI in the test on UO-31 renal, in the test on OVCAR-3 ovarian, in the test with SF-268 CNS, in the test on RPMI-8226 leukemia, with PC-3 prostate and with NCI/ADR-RES ovarian was over 100 µM in each case. Also, the TGI with KM12 colon, in the test on SNB-75 CNS, in the test on A549 NSCLC, with U251 CNS, in the test with ACHN renal and with MOLT-4 leukemia was over 100 µM throughout. The TGI in the test on EKVX NSCLC, with OVCAR-5 ovarian, with LOX IMVI melanoma and in the test with K-562 leukemia was over 100 µM throughout.

As for `CC(=O)N1C(c2[nH]c3ccccc3c2Cc2ccccc2)CCN1c1ccccc1` (stereo not given), the TGI in the test with UACC-257 melanoma, in the test on UO-31 renal, in the test with OVCAR-3 ovarian, in the test on SF-268 CNS, in the test on RPMI-8226 leukemia and with PC-3 prostate was over 10 µM throughout. Moreover, the TGI with NCI/ADR-RES ovarian, in the test with SNB-75 CNS, with A549 NSCLC, in the test with ACHN renal, in the test with MOLT-4 leukemia and in the test on EKVX NSCLC was over 10 µM in each case. For the same compound, the TGI in the test on OVCAR-5 ovarian, in the test on LOX IMVI melanoma and with K-562 leukemia was over 10 µM throughout.

On to `CC(=O)Oc1ccc2c(c1)[nH]c1c3ccc(OC(C)=O)cc3oc(=O)c21`, for which the TGI in the test on UACC-257 melanoma is over 100 µM; in the test on UO-31 renal it was over 100 µM; in the test with OVCAR-3 ovarian it was 71.9 µM; in the test with SF-268 CNS it was 75 µM; in the test on PC-3 prostate it was over 100 µM; in the test with NCI/ADR-RES ovarian it was over 100 µM. The TGI in the test with KM12 colon was over 100 µM; with SNB-75 CNS, over 100 µM; in the test on A549 NSCLC, over 100 µM; in the test with U251 CNS, over 100 µM; in the test on ACHN renal it was 78.3 µM; with MOLT-4 leukemia it was over 100 µM. Besides, the TGI is 86.1 µM with EKVX NSCLC, over 100 µM with OVCAR-5 ovarian and over 100 µM with K-562 leukemia.

Turning to `O=C(Nn1c(-c2ccccc2)nc2ccccc2c1=O)c1cccc([N+](=O)[O-])c1`, the TGI in the test with UACC-257 melanoma, in the test with UO-31 renal, in the test with OVCAR-3 ovarian, in the test on SF-268 CNS, with RPMI-8226 leukemia and in the test with PC-3 prostate was over 100 µM throughout. For the same compound, the TGI in the test with KM12 colon, with SNB-75 CNS, in the test on A549 NSCLC, with U251 CNS, in the test with A498 renal and in the test on ACHN renal was over 100 µM in each case. In addition, the TGI with MOLT-4 leukemia, with EKVX NSCLC, in the test with OVCAR-5 ovarian, in the test with LOX IMVI melanoma and in the test on K-562 leukemia was over 100 µM throughout.

Turning to `NNC(=O)/C(NC(=O)c1ccccc1)=C(\N)c1cccc([N+](=O)[O-])c1`, the TGI in the test on UACC-257 melanoma, in the test with UO-31 renal, in the test with OVCAR-3 ovarian, in the test with SF-268 CNS, with RPMI-8226 leukemia and in the test on KM12 colon was over 100 µM each time. Moreover, the TGI with SNB-75 CNS, in the test with A549 NSCLC, in the test with U251 CNS, in the test with A498 renal, with ACHN renal and in the test on MOLT-4 leukemia was over 100 µM each time. The TGI in the test with EKVX NSCLC, with OVCAR-5 ovarian, in the test on LOX IMVI melanoma and in the test on K-562 leukemia was over 100 µM throughout.

As to `Cc1cc2c(cc1Cl)SC(NNCCO)=NS2(=O)=O`, the TGI in the test with UACC-257 melanoma, in the test with UO-31 renal, in the test with SF-268 CNS, in the test with RPMI-8226 leukemia, in the test on PC-3 prostate and in the test with NCI/ADR-RES ovarian was over 100 µM in each case. For the same compound, the TGI in the test on KM12 colon, with SNB-75 CNS, in the test on U251 CNS, with ACHN renal, with MOLT-4 leukemia and in the test on EKVX NSCLC was over 100 µM throughout. The TGI in the test with LOX IMVI melanoma and in the test with K-562 leukemia was over 100 µM throughout.

Consider `N#CCCC1(CCC#N)S(=O)(=O)OCCOS1(=O)=O`, for which the TGI with UACC-257 melanoma, with UO-31 renal, in the test with OVCAR-3 ovarian, in the test with SF-268 CNS, in the test with RPMI-8226 leukemia and in the test on PC-3 prostate was over 100 µM each time. Also, the TGI in the test on NCI/ADR-RES ovarian, with KM12 colon, with SNB-75 CNS, in the test with A549 NSCLC, in the test on U251 CNS and in the test with ACHN renal was over 100 µM throughout. For the same compound, the TGI in the test on MOLT-4 leukemia, in the test with EKVX NSCLC, in the test with OVCAR-5 ovarian and in the test on LOX IMVI melanoma was over 100 µM throughout.

Consider `CC(C)N(C(C)C)S(=O)(=O)CC12CCC(C/C1=N\O)C2` (stereo not given), for which the TGI with UACC-257 melanoma, in the test with UO-31 renal, with OVCAR-3 ovarian, with SF-268 CNS, in the test with PC-3 prostate and in the test on NCI/ADR-RES ovarian was over 100 µM in each case. For the same compound, the TGI in the test on KM12 colon, with SNB-75 CNS, in the test on A549 NSCLC, in the test with U251 CNS, in the test on ACHN renal and in the test with MOLT-4 leukemia was over 100 µM each time. The TGI in the test with EKVX NSCLC, in the test on OVCAR-5 ovarian, with LOX IMVI melanoma and in the test on K-562 leukemia was over 100 µM each time.

On to `CCC1(c2ccc(OC)c(OC)c2)CCN(S(=O)(=O)c2ccc(C)cc2)C1` (stereo not given), for which the TGI in the test with UACC-257 melanoma, with UO-31 renal, in the test with OVCAR-3 ovarian, in the test with SF-268 CNS, in the test with PC-3 prostate and in the test on NCI/ADR-RES ovarian was over 100 µM in each case. Besides, the TGI was over 100 µM in the test on KM12 colon; over 100 µM with SNB-75 CNS; over 100 µM in the test with A549 NSCLC; over 100 µM in the test with U251 CNS; over 100 µM in the test with ACHN renal; 64.1 µM in the test on MOLT-4 leukemia. Moreover, the TGI was over 100 µM in the test on EKVX NSCLC, over 100 µM with OVCAR-5 ovarian, over 100 µM with LOX IMVI melanoma and over 10 µM with K-562 leukemia.

In the case of `CN1CCCS/C1=C1/SC(=S)N(c2ccccc2)C1=O`, the TGI in the test on UACC-257 melanoma, in the test with UO-31 renal, in the test with OVCAR-3 ovarian, in the test with SF-268 CNS, with RPMI-8226 leukemia and in the test with KM12 colon was over 100 µM in each case. For the same compound, the TGI in the test with SNB-75 CNS, in the test on A549 NSCLC, with U251 CNS, with A498 renal, in the test with ACHN renal and with MOLT-4 leukemia was over 100 µM throughout. In addition, the TGI in the test with EKVX NSCLC, with OVCAR-5 ovarian, in the test with LOX IMVI melanoma and in the test on K-562 leukemia was over 100 µM in each case.

As for `O=c1[nH]c(=O)n([C@H]2C[C@@H](CO)[C@@H](O)C2)cc1I`, the TGI with UACC-257 melanoma, with UO-31 renal, with OVCAR-3 ovarian, in the test with SF-268 CNS, with RPMI-8226 leukemia and with KM12 colon was over 100 µM each time. The TGI in the test on SNB-75 CNS, in the test on A549 NSCLC, in the test with U251 CNS, with A498 renal, with ACHN renal and in the test with MOLT-4 leukemia was over 100 µM throughout. For the same compound, the TGI in the test with EKVX NSCLC, in the test with OVCAR-5 ovarian, with LOX IMVI melanoma and in the test on K-562 leukemia was over 100 µM throughout.
